Measurements as given in paper PMC9570838, “JND4135, a New Type II TRK Inhibitor, Overcomes TRK xDFG and Other Mutation Resistance In Vitro and In Vivo” (Molecules, 2022).

Tests used:
TRKA = biological target: T1, TRKA (Homo sapiens, UniProt P04629); test: FRET-based Z'-Lyte kinase assay; type: biochemical; conditions: mean ± SD, read-out: IC50 TRKA kinase inhibition
T1 construct: purchased Invitrogen

BaF3 ETV6-TRKC-G623R = test: BaF3 cell proliferation, CCK-8 assay; conditions: Mus musculus, BaF3, 72 h, read-out: IC50 (nM ± SD) Solvent Front ETV6-TRKC-G623R
Protocol: (§2) Murine BaF3 cells were purchased from JRCB cell bank. The BaF3 cell lines, which stably express natively-fused TRKA/B/C or various point mutants, were self-established by following previously described procedures. Briefly, NTRK genes were totally synthesized and cloned into pCDNA3.1(+) vectors (Invitrogen, Carlsbad, CA, USA). […] Stable strains were established by selection of cells 2 weeks post-transfection with 800 μg/mL G418 (Merck, Whitehouse Station, NJ) and further selection after the withdrawal of interleukin-3 (IL-3, R&D) for 2 weeks. All of BaF3 stable cell lines were verified by DNA sequencing, protein expression and anti-proliferation activity against positive drugs. […] All cells were grown at 37 °C in a humidified 5% CO2 atmosphere.
(§3) Cells were placed in 96-well plates (5000~8000/well) in complete medium. […] IC50 values were calculated by concentration-response curve fitting using GraphPad Prism 5.0 software. Each IC50 value is expressed as mean ± SD.

[1] = Pharmacokinetics in rats (Table S4); type: in vivo
TRKB = biological target: T2, TRKB (Homo sapiens, UniProt Q16620); test: FRET-based Z'-Lyte kinase assay; type: biochemical; conditions: mean ± SD, read-out: IC50 TRKB kinase inhibition
T2 construct: purchased Invitrogen
Protocol: (§1) TRKA/B/C and the Z′-Lyte Kinase Assay Kit were purchased from Invitrogen. Assays were performed according to the manufacturer’s instructions. […] The solutions of the compounds were diluted from 10^−10 M to […] in DMSO and a 400 μM solution of the compound was prepared with 4 μL of the solution of the compound dissolved in 96 μL water. […] For each assay, 10 μL of a kinase solution, including 2.5 μL of the compound solution, 5 μL of the kinase/peptide mixture, and 2.5 μL of the ATP solution was prepared. The plate wells were mixed thoroughly and incubated for 1 h at room temperature (rt). Then 5 μL of the development solution was added to each well and the plate was incubated for 1 h at rt; the […] were cleaved in this time. Finally, 5 μL of stop reagent was added to stop the reaction. For the control setting, 5 μL of the phosphopeptide solution instead of the kinase/peptide mixture was used as a 100% phosphorylation control. […] The plate was measured on an EnVision Multilabel Reader (Perkin-Elmer). Curve fitting and data presentation was performed using GraphPad Prism, version 5.0. Every experiment was repeated at least 2 times.

TRKA-G667C = TRKA-G667C (Homo sapiens, UniProt P04629, G667C); test: FRET-based Z'-Lyte kinase assay; type: biochemical
Protocol: as §1

TRKC = biological target: T3, TRKC (Homo sapiens, UniProt Q16288); test: FRET-based Z'-Lyte kinase assay; type: biochemical; conditions: mean ± SD, read-out: IC50 TRKC kinase inhibition
T3 construct: purchased Invitrogen
Protocol: as §1

BaF3 ETV6-TRKB = test: BaF3 cell proliferation, CCK-8 assay; conditions: Mus musculus, BaF3, 72 h, read-out: IC50 (nM ± SD) WT ETV6-TRKB
Protocol: as §2, §3

[2] = system: BaF3 cells harboring wild-type TRKA/B/C; test: BaF3 cell proliferation, summary over wild-type lines; conditions: Mus musculus, BaF3, read-out: IC50 range in BaF3 cells harboring wild-type TRKA/B/C
Description: Murine BaF3 cells were purchased from JRCB cell bank. The BaF3 cell lines, which stably express natively-fused TRKA/B/C or various point mutants, were self-established by following previously described procedures. Briefly, NTRK genes were totally synthesized and cloned into pCDNA3.1(+) vectors (Invitrogen, Carlsbad, CA, USA). The pCDNA3.1(+) plasmids containing different NTRK-fusion genes were introduced into BaF3 cells by electroporation (Amaxa Nucleofector II device) using the “Amaxa Cell Line Nucleofector Kit V” (VCA-1003) according to the manufacturer’s directions. Stable strains were established by selection of cells 2 weeks post-transfection with 800 μg/mL G418 (Merck, Whitehouse Station, NJ) and further selection after the withdrawal of interleukin-3 (IL-3, R&D) for 2 weeks. All of BaF3 stable cell lines were verified by DNA sequencing, protein expression and anti-proliferation activity against positive drugs. […]
as §3

[3] = system: BaF3 cells with solvent front mutations (TRKA^G595R, TRKB^G639R, TRKC^G623R); test: BaF3 cell proliferation, summary over solvent front lines; conditions: Mus musculus, BaF3, read-out: IC50 range in cells with solvent front mutations
Protocol: as §2, §3

[4] = system: parental BaF3 cells (phospho-ERK); test: Western blot in parental BaF3 cells (Figure S1); type: cell-based, Murine; conditions: parental BaF3 cells driven by IL-3 (Figure S1)
Protocol: Cells were treated with various concentrations of each tested compound for a designated time. Then cells were lysed using 1 × SDS sample lysis buffer (CST recommended) with protease and phosphatase inhibitors. […] The films were blocked with 5% fat-free milk in TBS solution containing 0.5% Tween-20 for 4 h at room temperature, then incubated with the corresponding primary antibody (1:1000–1:200) overnight at 4 °C. After washing with TBST, HRP-conjugated secondary antibody was incubated for 2 h. The protein signals were visualized by ECL Western Blotting Detection Kit (Thermo Scientific, Waltham, MA, USA), and detected with Amersham Imager 600 system (GE, Boston, MA, USA).

BaF3 CD74-TRKA-G595R = test: BaF3 cell proliferation, CCK-8 assay; conditions: Mus musculus, BaF3, 72 h, read-out: IC50 (nM ± SD) Solvent Front CD74-TRKA-G595R
Protocol: as §2, §3

BaF3 ETV6-TRKB-F633L = test: BaF3 cell proliferation, CCK-8 assay; conditions: Mus musculus, BaF3, 72 h, read-out: IC50 (nM ± SD) Gatekeeper ETV6-TRKB-F633L
Protocol: as §2, §3

BaF3 ETV6-TRKB-G639R = test: BaF3 cell proliferation, CCK-8 assay; conditions: Mus musculus, BaF3, 72 h, read-out: IC50 (nM ± SD) Solvent Front ETV6-TRKB-G639R
Protocol: as §2, §3

BaF3 ETV6-TRKC-F617L = test: BaF3 cell proliferation, CCK-8 assay; conditions: Mus musculus, BaF3, 72 h, read-out: IC50 (nM ± SD) Gatekeeper ETV6-TRKC-F617L
Protocol: as §2, §3

TRKC-G696C = biological target: T4, TRKC-G696C (Homo sapiens, UniProt Q16288, G696C); test: Bio-layer interferometry (BLI) Octet binding assay
T4 construct: residues 526–839 from the kinase domain; made in house
Protocol: Biolayer interferometry (BLI) assays were performed with the Octet K2 machine (ForteBio, Inc., Fremont, CA, USA). […] A duplicate set of sensors was incubated in an assay buffer (PBS containing 0.02% Tween20 and 0.1% BSA) with 5% DMSO but without protein for use as a background binding control. Both sets of sensors were blocked with a solution of 10 μg/mL biocytin for 1 min at rt. […] Data was analyzed by the FortéBio Data Analysis 8.1 software (FortéBio, Fremont, CA, USA) using a double reference subtraction (sample and sensor references).

BaF3 MPRIP-TRKA = test: BaF3 cell proliferation, CCK-8 assay; conditions: Mus musculus, BaF3, 72 h, read-out: IC50 (nM ± SD) WT MPRIP-TRKA
Protocol: as §2, §3

BaF3 EML4-TRKC = test: BaF3 cell proliferation, CCK-8 assay; conditions: Mus musculus, BaF3, 72 h, read-out: IC50 (nM ± SD) WT EML4-TRKC
Protocol: as §2, §3

BaF3 ETV6-TRKB-G709C = test: BaF3 cell proliferation, CCK-8 assay; conditions: Mus musculus, BaF3, 72 h, read-out: IC50 (nM ± SD) xDFG ETV6-TRKB-G709C
Protocol: as §2, §3

Cc1c(C#Cc2cnc3cnc(-c4ccc(N)cc4)cn23)cccc1C(=O)Nc1cc(CN2CCN(C)CC2)cc(C(C)C)c1 [JND4135, 3-((6-(4-aminophenyl)imidazo[1,2-a]pyrazin-3-yl)ethynyl)-N-(3-isopropyl-5-((4-methylpiperazin-1-yl)methyl)phenyl)-2-methylbenzamide]
IC50 (TRKA): 2.79 ± 1.17 nM
IC50 (BaF3 ETV6-TRKC-G623R): 9.4 ± 2.6 nM
absorption via oral administration [1]: almost no absorption
IC50 (TRKB): 3.19 ± 1.76 nM
fold stronger kinase inhibition of TRKA-G667C than TRKA-WT (TRKA-G667C): 3.3 fold
IC50 (TRKA-G667C; Z'-Lyte, mean ± SD, read-out: IC50 TRKA-G667C kinase inhibition): 0.83 ± 0.06 nM
IC50 (TRKC): 3.01 ± 0.43 nM
IC50 (BaF3 ETV6-TRKB): 23.1 ± 5.9 nM
IC50 [2]: 2.4 to 23.1 nM
IC50 [3]: 9.4 to 33.7 nM
effect on phospho-ERK levels [4]: increased the phospho-ERK levels
IC50 (BaF3 CD74-TRKA-G595R): 33.7 ± 7.1 nM
IC50 (BaF3 ETV6-TRKB-F633L): 178 ± 4.3 nM
IC50 (BaF3 ETV6-TRKB-G639R): 10.1 ± 3.9 nM
IC50 (BaF3 ETV6-TRKC-F617L): 37.3 ± 14 nM
koff (TRKC-G696C; Koff, read-out: dissociation rate with TRKC-G696C): 0.00135 s⁻¹
Kd (TRKC-G696C; read-out: Kd, binding affinity to TRKC-G696C): 3.68 nM
IC50 (BaF3 MPRIP-TRKA): 7.1 ± 2.3 nM
IC50 (BaF3 EML4-TRKC): 13.2 ± 2.6 nM
IC50 (BaF3 ETV6-TRKB-G709C): 18.7 ± 2.9 nM
